Assays:
hCA I = hCA I (Homo sapiens, UniProt P00915); experiment: Stopped flow CO2 hydrase assay, hCA I
Method: (§1) The uncatalyzed rates were determined in the same manner and subtracted from the total observed rates. Stock solutions of inhibitor (0.1 mM) were prepared in distilled-deionized water and dilutions up to 0.01 nM were done thereafter with the assay buffer. Inhibitor and enzyme solutions were preincubated together for 15 min at room temperature prior to assay, in order to allow for the formation of the E-I complex. The inhibition constants were obtained by non-linear least-squares methods using PRISM 3 and the Cheng–Prusoff equation, as reported earlier,[29–32] and represent the mean from at least three different determinations.

hCA II = hCA II (Homo sapiens, UniProt P00918); experiment: Stopped flow CO2 hydrase assay, hCA II
Method: as §1

hCA IX = hCA IX (Homo sapiens, UniProt Q16790); experiment: Stopped flow CO2 hydrase assay, hCA IX; conditions: for Selectivity index I/IX: inhibition of hCA IX over hCA I; for Selectivity index I/IX / Selectivity index II/IX: calculated from Ki; for Selectivity index II/IX: inhibition of hCA IX over hCA II
Method: as §1

hCA XII = hCA XII (Homo sapiens, UniProt O43570); experiment: Stopped flow CO2 hydrase assay, hCA XII; conditions: for Selectivity index I/XII: inhibition of hCA XII over hCA I; for Selectivity index I/XII / Selectivity index II/XII: calculated from Ki; for Selectivity index II/XII: inhibition of hCA XII over hCA II
Sequence of hCA XII (O43570 25-354): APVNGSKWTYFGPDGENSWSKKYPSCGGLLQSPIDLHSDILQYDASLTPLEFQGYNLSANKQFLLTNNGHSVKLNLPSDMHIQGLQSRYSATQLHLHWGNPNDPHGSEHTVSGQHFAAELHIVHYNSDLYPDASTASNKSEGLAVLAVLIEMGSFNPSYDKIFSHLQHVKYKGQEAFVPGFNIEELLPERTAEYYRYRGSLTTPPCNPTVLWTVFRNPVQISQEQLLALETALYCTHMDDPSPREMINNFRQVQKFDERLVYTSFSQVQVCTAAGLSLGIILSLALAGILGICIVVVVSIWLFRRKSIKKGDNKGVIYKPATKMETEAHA
Method: as §1

CA IX = conditions: cited from earlier work

Sequence of hCA I (P00915 whole entry): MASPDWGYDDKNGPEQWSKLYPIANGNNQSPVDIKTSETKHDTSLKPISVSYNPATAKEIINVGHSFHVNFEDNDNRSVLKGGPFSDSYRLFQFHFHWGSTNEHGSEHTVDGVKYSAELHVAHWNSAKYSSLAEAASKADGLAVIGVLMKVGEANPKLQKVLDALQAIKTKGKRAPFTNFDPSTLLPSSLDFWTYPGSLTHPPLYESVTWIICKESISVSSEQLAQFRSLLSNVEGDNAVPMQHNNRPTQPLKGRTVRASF

Structure (SMILES) | melting point [°C] | Ki (hCA I) [nM] | Ki (hCA II) [nM] | Ki (hCA IX) [nM] | Ki (hCA XII) [nM] | Selectivity index I/IX (hCA IX) | Selectivity index II/IX (hCA IX) | Selectivity index I/XII (hCA XII) | Selectivity index II/XII (hCA XII) | Ki (CA IX; compound A, printed in Figure 2, read-out: Ki hCA IX) [nM] | IC50 (CA IX; reported for compound A) [nM]
CC(=O)Nc1cccc(C(=O)NC(=S)Nc2ccc(S(N)(=O)=O)cc2)c1 [Compound 7a, 3-Acetamido-N-((4-sulfamoylphenyl)carbamothioyl)benzamide] | 256 to 258 | 58.2 | 2.5 | 238 | > 100000 | – | – | – | – | – | –
CC(C)C(=O)Nc1cccc(C(=O)NC(=S)Nc2ccc(S(N)(=O)=O)cc2)c1 [Compound 7b, 3-Isobutyramido-N-((4-sulfamoylphenyl)carbamothioyl)benzamide] | 240 to 242 | 56.3 | 2.1 | 149 | > 100000 | – | – | – | – | – | –
Cc1ccc(C(=O)Nc2cccc(C(=O)NC(=S)Nc3ccc(S(N)(=O)=O)cc3)c2)cc1 [Compound 7c, 3-(4-Methylbenzamido)-N-((4-sulfamoylphenyl)carbamothioyl)benzamide] | 210 to 212 | 33 | 56.6 | 31.2 | > 100000 | 1.0 | 2.0 | – | – | – | –
CC(=O)Nc1ccc(C(=O)NC(=S)Nc2ccc(S(N)(=O)=O)cc2)cc1 [Compound 7d, 4-Acetamido-N-((4-sulfamoylphenyl)carbamothioyl)benzamide] | 218 to 220 | 5450 | 701 | 168 | 97 | – | – | – | – | – | –
CC(C)C(=O)Nc1ccc(C(=O)NC(=S)Nc2ccc(S(N)(=O)=O)cc2)cc1 [Compound 7e, 4-Isobutyramido-N-((4-sulfamoylphenyl)carbamothioyl)benzamide] | 248 to 250 | 333 | 39.6 | 203 | 94 | – | – | – | – | – | –
Cc1ccc(C(=O)Nc2ccc(C(=O)NC(=S)Nc3ccc(S(N)(=O)=O)cc3)cc2)cc1 [Compound 7f, 4-Methyl-N-(4(((4sulfamoylphenyl)carbamothioyl)carbamoyl)phenyl) benzamide] | 228 to 230 | 43 | 39 | 30 | 106 | 1.4 | 1.3 | – | – | – | –
CC(=O)Nc1cccc(C(=O)NC(=S)Nc2ccc(C(=O)O)cc2)c1 [Compound 8a, 4-(3-(3-Acetamidobenzoyl)thioureido)benzoic acid] | 247 to 249 | 8180 | 5400 | 209 | 17 | – | – | 481 | 318 | – | –
CC(C)C(=O)Nc1cccc(C(=O)NC(=S)Nc2ccc(C(=O)O)cc2)c1 [Compound 8b, 4-(3-(3-Isobutyramidobenzoyl)thioureido)benzoic acid] | 240 to 242 | > 100000 | > 100000 | 208 | 142 | – | – | – | – | – | –
Cc1ccc(C(=O)Nc2cccc(C(=O)NC(=S)Nc3ccc(C(=O)O)cc3)c2)cc1 [Compound 8c, 4-(3-(3-(4-Methylbenzamido)benzoyl)thioureido)benzoic acid] | 254 to 256 | 9170 | 295 | 264 | 145 | – | – | – | – | – | –
CC(=O)Nc1ccc(C(=O)NC(=S)Nc2ccc(C(=O)O)cc2)cc1 [Compound 8d, 4-(3-(4-Acetamidobenzoyl)thioureido)benzoic acid] | 245 to 247 | > 100000 | 855 | 971 | > 100000 | – | – | – | – | – | –
CC(C)C(=O)Nc1ccc(C(=O)NC(=S)Nc2ccc(C(=O)O)cc2)cc1 [Compound 8e, 4-(3-(4-Isobutyramidobenzoyl)thioureido)benzoic acid] | 240 to 242 | > 100000 | 430 | 898 | 102 | 293 | – | – | – | – | –
Cc1ccc(C(=O)Nc2ccc(C(=O)NC(=S)Nc3ccc(C(=O)O)cc3)cc2)cc1 [Compound 8f, 4-(3-(4–(4-Methylbenzamido)benzoyl)thioureido)benzoic acid] | 254 to 256 | 422 | > 100000 | 176 | 11 | – | – | 38 | >9091 | – | –
CCOC(=O)c1ccc(NC(=S)NC(=O)c2cccc(NC(C)=O)c2)cc1 [Compound 9a, Ethyl 4–(3-(3-acetamidobenzoyl)thioureido)benzoate] | 242 to 244 | 9040 | > 100000 | 2130 | > 100000 | – | – | – | – | – | –
CCOC(=O)c1ccc(NC(=S)NC(=O)c2cccc(NC(=O)C(C)C)c2)cc1 [Compound 9b, Ethyl 4–(3-(3-isobutyramidobenzoyl)thioureido)benzoate] | 245 to 247 | 8660 | 57.1 | 300 | > 100000 | – | – | – | – | – | –
CCOC(=O)c1ccc(NC(=S)NC(=O)c2cccc(NC(=O)c3ccc(C)cc3)c2)cc1 [Compound 9c, Ethyl 4–(3-(3–(4-methylbenzamido)benzoyl)thioureido)benzoate] | 236 to 238 | > 100000 | 546 | 251 | > 100000 | – | – | – | – | – | –
CCOC(=O)c1ccc(NC(=S)NC(=O)c2ccc(NC(C)=O)cc2)cc1 [Compound 9d, Ethyl 4–(3-(4-acetamidobenzoyl)thioureido)benzoate] | 237 to 239 | > 100000 | > 100000 | 1630 | > 100000 | – | – | – | – | – | –
CCOC(=O)c1ccc(NC(=S)NC(=O)c2ccc(NC(=O)C(C)C)cc2)cc1 [Compound 9e, Ethyl 4–(3-(4-isobutyramidobenzoyl)thioureido)benzoate] | 245 to 247 | 8500 | 73.2 | 29 | 202 | 293 | 2.5 | – | – | – | –
CCOC(=O)c1ccc(NC(=S)NC(=O)c2ccc(NC(=O)c3ccc(C)cc3)cc2)cc1 [Compound 9f, Ethyl 4–(3-(4–(4-methylbenzamido)benzoyl)thioureido)benzoate] | 237 to 239 | > 100000 | > 100000 | 1580 | 155 | – | – | – | – | – | –
NS(=O)(=O)c1ccc(NC(=S)NC(=O)c2ccc(Cl)cc2Cl)cc1 [Compound A] | – | – | – | – | – | – | – | – | – | 0.12 | 0.12

Source: publication PMC9621292, “Design and synthesis of some new benzoylthioureido benzenesulfonamide derivatives and their analogues as carbonic anhydrase inhibitors” (Journal of Enzyme Inhibition and Medicinal Chemistry, 2022)
